Assay results: patent US11969425B2, “Inhibitor of indoleamine-2,3-dioxygenase (IDO)” (InventisBio LLC, priority 2016, dated 2024)

Each compound was assayed on kynurenine production in HeLa cells (assay: Inhibition of kynurenine production in HeLa cells). Conditions: HeLa cells, human IFN-γ 50 ng/mL, 48 h, kynurenine read at 480 nm; read-out: IC50.
Type: cell-based, human
Protocol: The effect of compounds described herein on the inhibition of kynurenine production in HeLa cells (derived from human cervical cancer) was determined. HeLa cells were seeded into a 96-well culture plate at a density of 5×10^3 per well in RPMI1640/phenol red free media (from GIBCO) with 2 mM L-glutamine and 10% fetal bovine serum (FBS, from GIBCO) and grown overnight in a 37° C. incubator with 5% CO2. Twenty-four hours later, human IFN-γ (from GIBCO) (final concentration 50 ng/mL) and test compound solutions (serially diluted to different wells) were added to each well with a final volume of 200 uL per well. Forty-eight hours after incubation with compounds, 140 uL supernatant was taken from each well and was transferred to a new 96-well plate. Ten microliters of 6.1 N trichloroacetic acid were added into each well, mixed and incubated at 50° C. for 30 minutes. The reaction mixture was then centrifuged for 10 minutes at 2500 rpm and 100 uL of the supernatant per well was transferred to another 96 well plate and mixed with 100 uL of 2% (w/v) p-dimethylaminobenzaldehyde in acetic acid. The yellow color derived from kynurenine was measured at 480 nm using a SPECTRAmax i3 reader. Each compound concentration was done in triplicates and compound IC50 value was calculated using nonlinear regression using Graphpad Prism 5.0.
The inhibitory activity of representative compounds described herein, compared with another IDO inhibitor, such as INCB-24360, Controls 1 and 2 are shown in Table 2.
Compound `CCC(C(=O)O)c1ccc(N(CC(C)C)C2CCCCC2)c(NC(=O)Nc2cncnc2)c1` (single isomer, unassigned) [Compound 64B] has an IC50 of 0.2 nM. `CCC(C(=O)O)c1ccc(N(CC(C)C)C2CCOCC2)c(NC(=O)Nc2ccc(F)cc2F)c1` (single isomer, unassigned) [Compound 65B] showed an IC50 of 12 nM. `CCC(C(=O)O)c1ccc(N(CC(C)C)C2CCOCC2)c(Nc2ccc3c(c2)OC(F)(F)O3)c1` (single isomer, unassigned) [Compound 71A] showed an IC50 of 0.3 nM. With `CCC(C(=O)O)c1ccc(N(CC(C)C)CC(C)C)c(NC(=O)Nc2cc(C)no2)c1` (single isomer, unassigned) [Compound 59A] the IC50 was 12.7 nM. Compound `CCC(C(=O)O)c1ccc(N(CC(C)C)C2CCCCC2)c(NC(=O)Nc2cncnc2)c1` (single isomer, unassigned) [Compound 64A] has an IC50 of 4.2 nM. Work on `CCC(C(=O)O)c1ccc(N(CC(C)C)C2CCOCC2)c(Nc2ccc3c(c2)OC(F)(F)O3)c1` (single isomer, unassigned) [Compound 71B] yielded an IC50 of 0.9 nM. In the case of `CC(C)CN(CC(C)(C)O)c1ccc(C2(C(=O)O)CCC2)cc1NC(=O)Nc1ccc(F)cc1F` [Compound 23], the IC50 is reported as 61.5 nM. With `CCC(C(=O)O)c1ccc(N(CC(C)C)CC(C)C)c(NC(=O)Nc2cc(C)no2)c1` (single isomer, unassigned) [Compound 59B] the IC50 was 0.1 nM.

Same assay, conditions: Homo sapiens, HeLa, 48 h
Compound `CC(C)CN(c1ccc(C2(C(=O)O)CCC2)cc1NC(=O)Nc1ccc(F)cc1F)C1CCN(C)CC1` [Compound 28] has an IC50 greater than 316 nM. For `CCOc1ncc(Nc2cc(C3(C(=O)O)CCC3)cnc2N2C3CCC2CC(c2ccc(F)cc2)C3)cn1` (stereo not shown) [Compound 127], the IC50 was 22 nM.

Same assay, conditions: Homo sapiens, HeLa, 48 h, HeLa cells, human IFN-γ 50 ng/mL, kynurenine read at 480 nm, read-out: IC50
`CCC(C(=O)O)c1ccc(N(CC(C)C)C2CCCCC2)c(NC(=O)Nc2cc(C)no2)c1` (stereo not shown) [Compound 63A] showed an IC50 of 2.5 nM. Compound `CC(C)CN(CC(C)C)c1ccc(C2(C(=O)O)CCCC2)cc1Nc1ccc(Cl)cc1` [Compound 51] has an IC50 of 2.3 nM. For `CC(C)CN(c1ccc(C2(C(=O)O)CCC2)cc1Nc1ccc(Cl)cc1F)C1CCOCC1` [Compound 88], the IC50 was 1.7 nM. `CCC(C(=O)O)c1ccc(N(CC(C)C)C2CCOCC2)c(Nc2ccc(F)cc2F)c1` (stereo not shown) [Compound 69] was tested, and the IC50 was 3.9 nM. Compound `CC(C)CN(c1ccc(C2(C(=O)O)CCC2)cc1Nc1cncnc1)C1CCOCC1` [Compound 74] has an IC50 of 1.9 nM. For `CC(C)CN(c1ccc(C2(C(=O)O)CCC2)cc1Nc1cnn(C)c1)C1CCOCC1` [Compound 87], the IC50 was 6.5 nM. `CCOc1ncc(Nc2cc(C3(C(=O)O)CCC3)ccc2N(CC(C)C)C2CCCCC2)cn1` [Compound 55] was tested, and the IC50 was 0.3 nM. `CC(C)CN(c1ccc(C2(C(=O)O)CCCC2)cc1NC(=O)Nc1ccc(F)cc1F)C1CCC(F)(F)CC1` [Compound 12] gave an IC50 of 0.5 nM. Work on `CC(C)CN(c1ccc(OC(C)(C)C(=O)O)cc1NC(=O)Nc1ccc(F)cc1F)C1CCCCC1` [Compound 35] yielded an IC50 of 1.9 nM. With `CCOc1ncc(Nc2cc(CC(=O)O)ccc2N(CC(C)C)C2CCOCC2)cn1` [Compound 109] the IC50 was greater than 316 nM. In the case of `Cc1cc(NC(=O)Nc2cc([C@H]3C[C@H]3C(=O)O)ccc2N(CC(C)C)CC(C)C)on1` [Control 2, (1R,2S)-2-(4-(diisobutylamino)-3-(3-(3-methylisoxazol-5-yl)ureido)phenyl)cyclopropanecarboxylic acid, reference compound], the IC50 is reported as 3 nM. Compound `O=C(Nc1ccc(F)cc1F)Nc1cc(C2(C(=O)O)CCCC2)ccc1N(CCC(F)(F)F)Cc1ccc(OC(F)(F)F)cc1` [Compound 13] has an IC50 of 0.6 nM. `CC(C)CN(CC(C)C)c1ccc(C(C)(C)C(=O)O)cc1NC(=O)Nc1ccc(F)cc1F` [Compound 4] gave an IC50 of 14.9 nM. Compound `CC(C)CN(c1ccc(C2(C(=O)O)CCC2)cc1Nc1ccc(C#N)cc1)C1CCOCC1` [Compound 72] has an IC50 of 0.2 nM. Compound `CC(C)CN(CC(C)C)c1ccc(C2(C(=O)O)CCCC2)cc1Nc1nc2ccccc2[nH]1` [Compound 47] has an IC50 of 5.6 nM. Compound `CC(C)CN(c1ccc(C2(C(=O)O)CCC2)cc1Nc1ccc(Cl)c(F)c1)C1CCOCC1` [Compound 101] has an IC50 of 0.2 nM. Work on `CC(C)CN(c1ccc(C2(C(=O)O)CCC2)cc1Nc1cccc(Cl)c1)C1CCOCC1` [Compound 100] yielded an IC50 of 3.5 nM. For `CC(C)CN(c1ccc(C2(C(=O)O)CCC2)cc1Nc1ccc(F)cc1F)C1CCOCC1` [Compound 89], the IC50 was 6.3 nM. `CC(C)CN(c1ccc(C2(C(=O)O)CCC2)cc1NC(=O)C(C)C)C1CCOCC1` [Compound 50] was tested, and the IC50 was greater than 316 nM. `CCC(C(=O)O)c1ccc(N(CC(C)C)CC(C)C)c(Nc2ccc(C#N)cc2)c1` (stereo not shown) [Compound 61A] was tested, and the IC50 was 0.3 nM. For `CCC(C(=O)O)c1ccc(N(CC(C)C)C2CCOCC2)c(Nc2ccc(Cl)cc2)c1` (stereo not shown) [Compound 68A], the IC50 was 0.4 nM. With `CC(C)CN(c1ccc(SC(C)(C)C(=O)O)cc1NC(=O)Nc1ccc(F)cc1F)C1CCCCC1` [Compound 41] the IC50 was 6.4 nM. Compound `CC(C)CN(c1ccc(C2(C(=O)O)CCC2)cc1NCC1CC1)C1CCOCC1` [Compound 80] has an IC50 of 29 nM. In the case of `CCOc1ncc(Nc2cc(C3(C(=O)O)CCC3)ccc2N(CC2CC2)C(C)C)cn1` [Compound 98], the IC50 is reported as 2.8 nM. `CC(C)CN(CC(C)C)c1ccc(C2(c3nnn[nH]3)CCC2)cc1NC(=O)Nc1ccc(F)cc1F` [Compound 19] gave an IC50 of 1 nM. Work on `Cc1csc(Nc2cc(C3(C(=O)O)CCC3)ccc2N(CC(C)C)C2CCOCC2)n1` [Compound 76] yielded an IC50 of 1.1 nM. With `CC(C)CN(c1ccc(C2(C(=O)O)CCC2)cc1Nc1cc(Cl)cc(Cl)c1)C1CCOCC1` [Compound 103] the IC50 was 20 nM.
